Data as given in ChEMBL document CHEMBL1201862, “PubChem BioAssay data set” (2004).
Several values for one entry are separate records, joined by “and”; a condition that tells them apart may be missing. Equal entries are not always repeated. Activity calls are given as the source filed them.

Legend:
fMet-Leu-Phe receptor = target: T1, fMet-Leu-Phe receptor (Homo sapiens, UniProt P21462); test: formyl peptide receptor binders – dose response (AID 519); format: functional
T1 sequence (P21462 whole entry): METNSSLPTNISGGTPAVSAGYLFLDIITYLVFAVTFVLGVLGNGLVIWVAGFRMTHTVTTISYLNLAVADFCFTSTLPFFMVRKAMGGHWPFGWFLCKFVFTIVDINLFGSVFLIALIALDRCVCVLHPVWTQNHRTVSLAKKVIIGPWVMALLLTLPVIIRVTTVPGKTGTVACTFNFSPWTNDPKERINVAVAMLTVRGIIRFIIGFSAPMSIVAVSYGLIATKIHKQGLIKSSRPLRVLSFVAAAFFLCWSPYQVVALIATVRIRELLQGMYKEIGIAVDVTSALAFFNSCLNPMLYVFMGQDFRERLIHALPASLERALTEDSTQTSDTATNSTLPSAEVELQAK

[1] = target: Mitogen-activated protein kinase 10 (Homo sapiens, UniProt P53779); test: Dose response biochemical screening assay for inhibitors of c-Jun N-Terminal Kinase 3 (JNK3). [Related pubchem assays: 746 ]
Chain of Mitogen-activated protein kinase 10 (P53779 whole entry): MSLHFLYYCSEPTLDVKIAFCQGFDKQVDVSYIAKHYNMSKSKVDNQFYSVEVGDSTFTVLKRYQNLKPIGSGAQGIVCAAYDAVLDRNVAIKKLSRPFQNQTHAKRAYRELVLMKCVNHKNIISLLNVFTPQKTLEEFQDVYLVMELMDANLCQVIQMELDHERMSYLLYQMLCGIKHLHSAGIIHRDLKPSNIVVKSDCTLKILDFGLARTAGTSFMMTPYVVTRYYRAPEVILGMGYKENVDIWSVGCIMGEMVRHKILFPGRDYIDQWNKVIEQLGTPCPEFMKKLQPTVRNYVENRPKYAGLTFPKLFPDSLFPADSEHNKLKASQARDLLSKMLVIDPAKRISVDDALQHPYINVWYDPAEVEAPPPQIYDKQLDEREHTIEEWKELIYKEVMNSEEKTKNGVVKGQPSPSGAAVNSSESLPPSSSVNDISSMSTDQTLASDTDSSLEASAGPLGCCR

[2] = target: Peroxisome proliferator-activated receptor gamma/Nuclear receptor corepressor 2 (Homo sapiens, UniProt P37231+Q9Y618); test: Counterscreen for NR2E3 inverse agonists: TR-FRET-based biochemical high throughput dose response assay to identify inverse agonists of the interaction between peroxisome proliferator-activated receptor gamma (PPARg) and nuclear receptor co-repressor 2 (NCOR2).; format: functional
[3] = target: Photoreceptor-specific nuclear receptor (Homo sapiens, UniProt Q9Y5X4); test: ligands suppressing NR2E3 nuclear receptor activity – biochemical, TR-FRET, dose response (AID 463256); format: functional
Chain of Photoreceptor-specific nuclear receptor (Q9Y5X4 whole entry): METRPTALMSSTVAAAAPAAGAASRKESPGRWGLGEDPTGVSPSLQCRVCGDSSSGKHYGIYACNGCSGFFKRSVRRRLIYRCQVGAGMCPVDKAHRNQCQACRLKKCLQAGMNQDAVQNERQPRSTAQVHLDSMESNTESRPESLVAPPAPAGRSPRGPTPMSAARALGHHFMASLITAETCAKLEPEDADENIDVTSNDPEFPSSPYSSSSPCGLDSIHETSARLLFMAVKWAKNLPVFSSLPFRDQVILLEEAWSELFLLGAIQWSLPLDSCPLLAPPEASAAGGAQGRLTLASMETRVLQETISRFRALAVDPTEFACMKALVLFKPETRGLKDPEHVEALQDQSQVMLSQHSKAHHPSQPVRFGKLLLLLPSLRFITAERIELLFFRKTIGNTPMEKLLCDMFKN

[4] = viability loss in HepG2 hepatoma cells – cell-based, ATP luminescence, dry powder, set 2, cytotoxicity control, dose response (AID 743129); format: functional
[5] = viability loss in A549 lung cancer cells – cell-based, CellTiter-Glo luminescence, dry powder, set 5, cytotoxicity control, dose response (AID 743158); format: functional
[6] = viability loss in HEK293T cells – cell-based, ATP luminescence, dry powder, set 3, cytotoxicity control, dose response (AID 743131); format: functional; settings: HEK293
[7] = target: ATP-dependent molecular chaperone HSP82 (Candida albicans (strain WO-1) (Yeast), UniProt C4YTQ8); test: steroid-induced GRE reporter decrease in yeast – S. cerevisiae, luminescence, Hsp90 inhibitor project, dose response (AID 2400); format: functional, cell-based;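 note: beta-galactosidase luminescence from glucocorticoid response element reporter as proxy for Hsp90 function; inhibitor potency where signal loss means Hsp90 inhibition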
Chain of ATP-dependent molecular chaperone HSP82 (C4YTQ8 whole entry): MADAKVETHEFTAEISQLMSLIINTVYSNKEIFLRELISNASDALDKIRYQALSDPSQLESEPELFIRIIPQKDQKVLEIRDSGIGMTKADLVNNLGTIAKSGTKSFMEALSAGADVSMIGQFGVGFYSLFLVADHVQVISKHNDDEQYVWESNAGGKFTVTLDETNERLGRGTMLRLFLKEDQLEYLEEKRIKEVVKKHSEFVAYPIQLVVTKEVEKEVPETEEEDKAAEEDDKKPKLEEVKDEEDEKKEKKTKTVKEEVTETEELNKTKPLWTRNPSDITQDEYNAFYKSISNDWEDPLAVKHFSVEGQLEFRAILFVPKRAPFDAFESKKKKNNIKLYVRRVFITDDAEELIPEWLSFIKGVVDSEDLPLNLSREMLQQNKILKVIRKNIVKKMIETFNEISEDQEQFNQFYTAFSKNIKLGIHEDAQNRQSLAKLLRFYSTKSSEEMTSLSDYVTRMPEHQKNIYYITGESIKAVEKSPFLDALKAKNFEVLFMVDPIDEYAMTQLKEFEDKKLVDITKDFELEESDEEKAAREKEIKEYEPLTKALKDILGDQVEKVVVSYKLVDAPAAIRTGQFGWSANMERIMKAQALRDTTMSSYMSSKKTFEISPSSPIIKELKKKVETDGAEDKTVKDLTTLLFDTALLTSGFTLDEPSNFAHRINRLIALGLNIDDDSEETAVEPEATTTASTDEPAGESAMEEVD

[8] = fluconazole-exposed Candida albicans growth modulators – fluorescence, retest, confirmation (AID 2467); format: functional, cell-based
[9] = test system: Streptococcus sp. 'group A'; test: Streptococcus pyogenes SK(-)GAS viability under kanamycin – luminescence, BacTiterGlo, confirmation, counter-screen for streptokinase expression inhibitor project, dose response (AID 1900); format: functional, organism-based
Streptokinase A = target: T2, Streptokinase A (Streptococcus pyogenes serotype M1, UniProt P10520); test: viability-normalized secreted streptokinase activity reduction – plasminogen activation absorbance, OD405, dose response (AID 1914); format: functional, Streptococcus pyogenes M1 GAS;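 note: secreted streptokinase activity via plasminogen activation per viability signal from cell pellet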
T2 sequence (P10520 whole entry): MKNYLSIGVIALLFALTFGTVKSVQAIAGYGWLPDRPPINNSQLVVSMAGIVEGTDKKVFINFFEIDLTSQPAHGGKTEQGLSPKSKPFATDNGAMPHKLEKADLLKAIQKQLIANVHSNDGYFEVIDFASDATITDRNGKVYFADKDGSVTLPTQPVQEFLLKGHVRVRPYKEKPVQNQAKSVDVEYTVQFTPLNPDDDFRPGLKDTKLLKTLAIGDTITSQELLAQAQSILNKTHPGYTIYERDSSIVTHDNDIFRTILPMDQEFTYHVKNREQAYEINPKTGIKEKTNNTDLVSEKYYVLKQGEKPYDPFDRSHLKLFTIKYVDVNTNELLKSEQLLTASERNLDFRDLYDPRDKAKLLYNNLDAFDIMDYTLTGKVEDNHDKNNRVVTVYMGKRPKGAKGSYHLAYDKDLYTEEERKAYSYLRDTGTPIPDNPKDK

Cytochrome P450 2D6 = Cytochrome P450 2D6 (Homo sapiens, UniProt P10635);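 note: CYP2D6 member of a cytochrome P450 panel assay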
Chain of Cytochrome P450 2D6 (P10635 whole entry): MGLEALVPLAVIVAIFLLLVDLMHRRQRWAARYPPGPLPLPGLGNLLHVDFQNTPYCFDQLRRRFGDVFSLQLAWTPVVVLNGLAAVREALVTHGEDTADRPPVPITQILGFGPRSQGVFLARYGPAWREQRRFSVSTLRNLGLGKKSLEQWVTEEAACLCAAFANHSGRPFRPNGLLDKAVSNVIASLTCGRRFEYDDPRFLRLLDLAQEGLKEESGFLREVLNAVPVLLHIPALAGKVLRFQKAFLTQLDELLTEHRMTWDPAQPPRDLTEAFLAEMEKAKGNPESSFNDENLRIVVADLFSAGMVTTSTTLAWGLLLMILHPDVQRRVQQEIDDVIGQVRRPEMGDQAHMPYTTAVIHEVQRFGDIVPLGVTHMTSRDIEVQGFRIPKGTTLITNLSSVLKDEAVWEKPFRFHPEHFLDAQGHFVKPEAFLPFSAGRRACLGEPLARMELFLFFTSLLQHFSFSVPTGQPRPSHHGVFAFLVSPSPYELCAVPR

[10] = rise of 4N DNA cells, HeLa – IC50, dose response (AID 1117351); format: functional, cell-based
[11] = target: T3, Serine/threonine-protein phosphatase (Candida dubliniensis (strain CD36 / CBS 7987 / NCPF 3949 / NRRLY-17841) (Yeast), UniProt B9W6M3); test: blockers of CaCl2-induced CDRE-lacZ signaling – S. cerevisiae, luminescence, secondary, dose response (AID 2388); format: functional, cell-based;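 note: yeast reporter cells carrying a calcineurin-responsive lacZ construct stimulated with calcium chloride; luminescent beta-galactosidase reporter signal in whole cells rather than isolated phosphatase activity; potency for inhibition where a drop in reporter signal means calcineurin blockade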
T3 sequence (B9W6M3 whole entry): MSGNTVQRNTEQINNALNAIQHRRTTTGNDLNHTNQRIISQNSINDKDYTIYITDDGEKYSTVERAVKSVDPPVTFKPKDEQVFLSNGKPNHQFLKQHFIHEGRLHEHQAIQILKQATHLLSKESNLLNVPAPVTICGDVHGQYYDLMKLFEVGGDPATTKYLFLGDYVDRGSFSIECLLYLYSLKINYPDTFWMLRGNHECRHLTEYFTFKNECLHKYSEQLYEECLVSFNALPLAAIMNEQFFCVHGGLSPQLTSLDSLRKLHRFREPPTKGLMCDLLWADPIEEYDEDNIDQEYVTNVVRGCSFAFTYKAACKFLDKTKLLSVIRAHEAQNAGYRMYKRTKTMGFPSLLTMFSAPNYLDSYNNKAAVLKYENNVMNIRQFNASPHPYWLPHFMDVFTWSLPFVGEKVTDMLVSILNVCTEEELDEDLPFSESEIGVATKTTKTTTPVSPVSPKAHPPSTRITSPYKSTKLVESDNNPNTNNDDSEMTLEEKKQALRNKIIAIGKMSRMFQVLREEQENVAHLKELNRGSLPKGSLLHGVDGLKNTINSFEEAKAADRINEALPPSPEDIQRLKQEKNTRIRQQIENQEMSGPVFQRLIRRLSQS

[12] = rise of 2N DNA cells, HeLa – IC50, dose response (AID 1117349); format: functional, cell-based
[13] = Potency on glucagon-like peptide 1 release, dose-response in NCI-H716 cell line, half maximal inhibitory concentration (AID 1117344); format: functional, cell-based
[14] = glucagon-like peptide-1 release potency in STC-1, concentration-response, half-maximal inhibitory concentration in the STC-1 line (AID 1117345); format: functional, cell-based
Cytochrome P450 2C19 = Cytochrome P450 2C19 (Homo sapiens, UniProt P33261); test: Cytochrome panel assay with activity outcomes. Panel member name: p450-cyp2c19 Compounds with AC50 equal or less than 10 uM are considered active; format: functional; settings: read-out: AC50
Chain of Cytochrome P450 2C19 (P33261 whole entry): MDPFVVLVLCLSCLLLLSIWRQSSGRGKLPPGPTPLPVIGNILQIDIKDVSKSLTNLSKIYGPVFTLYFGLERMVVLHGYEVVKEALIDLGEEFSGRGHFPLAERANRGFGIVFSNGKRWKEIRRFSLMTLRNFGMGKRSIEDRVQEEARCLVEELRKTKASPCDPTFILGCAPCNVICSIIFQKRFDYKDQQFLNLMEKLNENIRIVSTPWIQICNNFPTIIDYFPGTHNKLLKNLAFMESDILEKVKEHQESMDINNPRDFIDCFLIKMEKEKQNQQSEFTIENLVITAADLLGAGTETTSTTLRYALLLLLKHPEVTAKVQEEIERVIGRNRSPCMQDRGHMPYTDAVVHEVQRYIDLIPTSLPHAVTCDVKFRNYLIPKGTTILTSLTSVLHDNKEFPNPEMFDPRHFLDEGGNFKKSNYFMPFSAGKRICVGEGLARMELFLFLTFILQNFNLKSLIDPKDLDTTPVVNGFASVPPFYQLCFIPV

[15] = NIH-3T3 fibroblast cytotoxicity, dose response, cytotoxicity control, cell-based, fluorescence, Alamar Blue, secondary assay (AID 2327); format: functional;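 note: NIH-3T3 mouse fibroblasts cultured with fluconazole at 8 µg/mL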
Streptococcus = test: GAS UMAA2166 growth inhibition – luminescence, BacTiterGlo, counter-screen for streptokinase expression inhibitor project, dose response (AID 1915); format: functional, organism-based;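 note: potency for reduction of bacterial viability or growth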
[16] = target: Heat shock protein HSP 90-alpha (Homo sapiens, UniProt P07900); format: functional, organism-based
Cytochrome P450 2C9 = Cytochrome P450 2C9 (Homo sapiens, UniProt P11712)
Chain of Cytochrome P450 2C9 (P11712 whole entry): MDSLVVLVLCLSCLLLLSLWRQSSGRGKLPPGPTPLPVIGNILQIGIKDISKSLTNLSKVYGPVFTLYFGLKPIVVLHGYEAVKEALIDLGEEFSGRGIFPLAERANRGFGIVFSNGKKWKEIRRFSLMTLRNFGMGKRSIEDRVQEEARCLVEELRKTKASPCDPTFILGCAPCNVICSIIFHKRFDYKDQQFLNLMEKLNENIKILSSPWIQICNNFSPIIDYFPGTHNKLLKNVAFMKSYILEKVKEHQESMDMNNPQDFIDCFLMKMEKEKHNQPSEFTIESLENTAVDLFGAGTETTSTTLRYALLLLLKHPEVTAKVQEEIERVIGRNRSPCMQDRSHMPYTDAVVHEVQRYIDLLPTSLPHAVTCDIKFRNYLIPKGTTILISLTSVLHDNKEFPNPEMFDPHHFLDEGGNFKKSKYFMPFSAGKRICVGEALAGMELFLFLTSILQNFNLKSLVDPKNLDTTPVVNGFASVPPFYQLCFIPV

[17] = target: Beta-2 adrenergic receptor (Homo sapiens, UniProt P07550); test: ADRB2 activation measured by internalization – cell-based, FAP fluorogen, flow cytometry, cherry pick 1, dose response (AID 588763); format: functional
Chain of Beta-2 adrenergic receptor (P07550 whole entry): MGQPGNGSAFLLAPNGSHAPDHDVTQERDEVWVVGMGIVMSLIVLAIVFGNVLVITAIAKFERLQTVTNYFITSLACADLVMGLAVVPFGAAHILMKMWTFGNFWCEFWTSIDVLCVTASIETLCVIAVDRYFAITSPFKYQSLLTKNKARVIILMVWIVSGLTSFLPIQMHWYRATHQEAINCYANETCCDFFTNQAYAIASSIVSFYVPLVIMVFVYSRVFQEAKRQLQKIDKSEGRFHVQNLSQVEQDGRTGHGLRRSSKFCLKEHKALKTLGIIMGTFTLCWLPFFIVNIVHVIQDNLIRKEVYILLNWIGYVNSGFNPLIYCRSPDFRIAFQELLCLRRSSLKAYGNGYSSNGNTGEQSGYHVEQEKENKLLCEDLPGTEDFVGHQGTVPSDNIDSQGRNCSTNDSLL

Question: Which Ki (fMet-Leu-Phe receptor) does the source give for `CCCOc1ccc(C2C(C(=O)c3ccc(C)o3)=C(O)C(=O)N2CCCn2ccnc2)cc1` (stereo not drawn) here?
Answer: 13.8 µM (active)

Question: What about the IC50 [1] of the same molecule?
Answer: 19.7 µM (not active)

Question: Which IC50 [2] does the source give for `COc1cc2ccccc2cc1C(=O)Nc1ccc2oc(=O)ccc2c1` here?
Answer: 2.86 µM (active)

Question: What about the IC50 [3] of the same molecule?
Answer: 2.28 µM (active)

Question: With `CCOC(=O)c1c(-c2ccc(-c3ccccc3)cc2)csc1NC(=O)CNCCN(C)C` as the molecule, how does the AC50 [4] read?
Answer: 16.5 µM (active)

Question: What about the AC50 [5] of the same molecule?
Answer: 17.1 µM (active)

Question: And the AC50 [6]?
Answer: 13.3 µM (active)

Question: What does the source list for `Clc1ccccc1C(c1ccccc1)(c1ccccc1)n1ccnc1` [CLOTRIMAZOLE]?
Answer: EC50 [7]: > 150 µM (inactive); EC50 [8]: 0.628 µM (active); EC50 [9]: 4.3 µM (active); EC50 (Streptokinase A): > 150 µM (not active); AC50 (Cytochrome P450 2D6): 10 µM (active) and 39.8 µM (inconclusive); IC50 [10]: > 10 µM (inactive); EC50 [11]: > 180 µM (inactive); IC50 [12]: > 10 µM (inactive); IC50 [13]: 20.2 µM (inactive); IC50 [14]: > 40 µM (inactive); AC50 (Cytochrome P450 2C19): 10 µM (active) and 7.94 µM (inconclusive); EC50 [15]: 11.6 µM (active); EC50 (Streptococcus): 7.15 µM (active); AC50 [16]: < 0.195 µM (active); AC50 (Cytochrome P450 2C9): 1 µM (active) and 316 nM (active); EC50 [17]: 4.69 µM (active)
